Measurements reported in US20170368052A1, “CRYSTAL FORMS OF APOMORPHINE AND USES THEREOF” (NeuroDerm, Ltd., priority 2014, published 2017).
Entries after “also recorded” stand apart in the source; their conditions may differ. Where a name gives a salt, the structure may show the parent alone.

Legend:
[1] = cited from earlier work; for pKa: amine bases used for salt release in IPA; for Literature pKa: bases of the base screen in n-BuOH
[2] = Stability study of the isolated solid to air and light (HPLC profile); assay type: physicochemical
Method: The 3-amino-1-propanol mediated salt release of apomorphine was scaled to 10 g in IPA (10 vol), and in order to aid the mobility of the reaction, the addition of the 3-amino-1-propanol was performed at 40-45° C. […] The slurry was cooled and aged over 16 h at 18 to 23° C.
Samples of solids isolated from an IPA recrystallization of the free base, salt released via the 3-amino-1-propanol route were monitored by their color change and their HPLC profile. The HPLC profiles are described in Table 8.

[3] = Stability of the reaction mixture at 40-45° C. (HPLC profile); assay type: physicochemical; conditions: 40° C.
Method: The effect of adding ascorbic acid-6-palmitate on stability of the reaction mixture and the isolated solid was determined in a larger scale reaction (A0513-68). On a 10 g scale, ascorbic acid-6-palmitate (0.01 wt) was added to a flask with the apomorphine hydrochloride salt and IPA (10 vol). 3-amino-1-propanol (2.5 ml, 1.1 eq, 0.25 vol) was added at 40-45° C., and a slurry was present throughout. The slurry was stirred at 40-45° C. for 2 h; at this point 10% of the reaction mixture was removed for an extended stability study at 40-45° C. The remainder of the reaction was cooled and aged over 16 h to 18-23° C. The solid was filtered and washed with IPA (2×3 vol) and resulted a white solid (liquor was pale yellow). The solid was dried under a flow of nitrogen for 30 min. The yield was 7.03 g (79.8%, corrected for 18.3% w/w IPA, approximately 1 eq), 100% area by HPLC (Note: 10% of the reaction mixture was removed for the stability study, therefore this yield is at the expected approximately 90% level, and the combined mother liquor and washes contained 7.6% of theoretical yield by assay). In this material the ascorbic acid-6-palmitate and 3-amino-1-propanol in the product were below detectable levels by ^1H NMR analysis.
Stability of the reaction mixture was compared with and without ascorbic acid-6-palmitate. Each reaction was held at 40-45° C. and both the color and the HPLC profile monitored. HPLC purity profiles are shown on Table 6.

[4] = Stability of the reaction mixture at reflux in IPA with/without ascorbic acid-6-palmitate (HPLC); assay type: physicochemical
Method: In this case, the base was added under reflux and the procedure compared with and without ascorbic acid-6-palmitate as an antioxidant (Table 7).

[5] = Vacuum oven drying, retained solvent content; assay type: physicochemical; conditions: for Solvent content post-drying: vacuum oven, 45° C. for 24 h
Method: Four samples (B, G, H and O) were transferred to a vacuum oven and dried at 45° C. for 24 h.

[6] = Antioxidant additives: stability of apomorphine free base in MeOH solution (HPLC); assay type: physicochemical; conditions: MeOH (10 vol)
Method: However, the free base in solution is susceptible to aerial oxidation.
The vial was flushed with air, sealed, and stirred. The reactions were compared with a control reaction having no antioxidant. • A—in MeOH (10 vol) (control reaction) • B—ascorbic acid-6-palmitate (10 wt %) in MeOH (10 vol) • C—BHT (10 wt %) in MeOH (10 vol)
Samples were analyzed by HPLC. […] The HPLC profile just after addition of the antioxidant was of similar purity for each sample. After 24 h, sample B had precipitated a small amount of solid in a pale green solution. […] Key impurities elute early in the HPLC profile at RRT 0.15 and 0.18. In the samples without ascorbic acid-6-palmitate these impurities were >1.5% area.

[7] = Solubility of apomorphine free base and HCl salt in solvents; assay type: physicochemical
Method: This material was used in 50 mg portions (A0513-06).
The free base is fully soluble in 5 vol of either MeOH, EtOH, or n-BuOH. […] The free base precipitated as an oil from most solvents, particularly after heating. An apparently crystalline solid formed following dissolution of the free base and cooling in 1,4-dioxane.

[8] = Stability to air (color visually monitored); assay type: physicochemical; conditions: visual
Text: Samples of free base isolated from water, IPA, and MeOAc were retained open to air and the color visually monitored (FIG. 2). Over the course of 2 days, the products isolated from organic solvents discolored to green solids. […]

[9] = isolated stability to air and light (2 days)
[10] = isolated stability to air and light (5 days)
[11] = isolated stability to air and light (17 days)
[12] = from reaction containing asc, stability of solid in air and light (5 days)
[13] = from reaction containing asc, stability of solid in air and light (14 days)
[14] = isolated from reaction containing asc (1 day)
[15] = ascorbic acid-6-palmitate, 24 h
[16] = ascorbic acid-6-palmitate, 48 h
[17] = ascorbic acid-6-palmitate, 120 h
[18] = no ascorbic acid-6-palmitate, solution at reflux
[19] = no ascorbic acid-6-palmitate, liquors
[20] = no ascorbic acid-6-palmitate, isolated solid
[21] = with ascorbic acid-6-palmitate, liquors
[22] = with ascorbic acid-6-palmitate, isolated solid

NCCCO [3-amino-1-propanol]
pKa [1]: 10.23

CC(C)O.CN1CCc2cccc3c2[C@H]1Cc1ccc(O)c(O)c1-3 [A0513-64-05, apomorphine free base mono-IPA solvate]
% area: RRT 1.00 ([2]; isolated solid, no ascorbic acid-6-palmitate, output): 100.00 % area | % area: RRT 1.00 [2, 9]: 99.98 % area | % area: RRT 1.71 [2, 9]: 0.02 % area | % area: RRT 1.00 [2, 10]: 99.95 % area | % area: RRT 1.71 [2, 10]: 0.03 % area | % area: RRT 1.76 [2, 10]: 0.02 % area | % area: RRT 0.41 [2, 11]: 0.03 % area | % area: RRT 1.00 [2, 11]: 99.92 % area | % area: RRT 1.71 [2, 11]: 0.02 % area | % area: RRT 1.76 [2, 11]: 0.03 % area

CC(C)O.CN1CCc2cccc3c2[C@H]1Cc1ccc(O)c(O)c1-3 [A0513-68-01, apomorphine free base mono-IPA solvate]
% area: RRT 1.00 [2, 12]: 99.97 % area | % area: RRT 1.71 [2, 12]: 0.03 % area | % area: RRT 0.41 [2, 13]: 0.01 % area | % area: RRT 1.00 [2, 13]: 99.92 % area | % area: RRT 1.71 [2, 13]: 0.03 % area | % area: RRT 1.76 [2, 13]: 0.02 % area | % area: RRT 2.02 [2, 13]: 0.02 % area | % area: RRT 1.00 [2, 14]: 99.98 % area | % area: RRT 1.71 [2, 14]: 0.02 % area

CN1CCc2cccc3c2C1Cc1ccc(O)c(O)c1-3 (stereo not drawn) [A0513-68A-03]
% area: RRT 1.00 [3, 15]: 99.93 % area | % area: RRT 1.71 [3, 15]: 0.05 % area | % area: RRT 1.76 [3, 15]: 0.03 % area | % area: RRT 1.00 [3, 16]: 99.96 % area | % area: RRT 1.71 [3, 16]: 0.04 % area | % area: RRT 1.00 [3, 17]: 99.86 % area | % area: RRT 1.25 [3, 17]: 0.04 % area | % area: RRT 1.71 [3, 17]: 0.06 % area | % area: RRT 1.76 [3, 17]: 0.04 % area

CN1CCc2cccc3c2C1Cc1ccc(O)c(O)c1-3 (stereo not drawn) [A0513-72-01]
% area: RRT 0.74 ([3]; poor purging, 24 h): 0.22 % area | % area: RRT 1.00 ([3]; poor purging, 24 h): 98.18 % area | % area: RRT 1.09 ([3]; poor purging, 24 h): 0.13 % area | % area: RRT 1.22 ([3]; poor purging, 24 h): 0.44 % area | % area: RRT 1.25 ([3]; poor purging, 24 h): 0.10 % area | % area: RRT 1.37 ([3]; poor purging, 24 h): 0.15 % area | % area: RRT 1.50 ([3]; poor purging, 24 h): 0.07 % area | % area: RRT 0.74 ([3]; poor purging, 48 h): 0.10 % area | % area: RRT 1.00 ([3]; poor purging, 48 h): 94.66 % area | % area: RRT 1.09 ([3]; poor purging, 48 h): 2.32 % area | % area: RRT 1.22 ([3]; poor purging, 48 h): 0.42 % area | % area: RRT 1.25 ([3]; poor purging, 48 h): 1.46 % area | % area: RRT 1.37 ([3]; poor purging, 48 h): 0.16 % area | % area: RRT 1.50 ([3]; poor purging, 48 h): 0.10 % area

CN1CCc2cccc3c2C1Cc1ccc(O)c(O)c1-3 (stereo not drawn) [A0513-76-01]
% area: RRT 1.00 ([3]; effective purging, 24 h): 99.90 % area | % area: RRT 1.71 ([3]; effective purging, 24 h): 0.06 % area | % area: RRT 1.76 ([3]; effective purging, 24 h): 0.04 % area | % area: RRT 1.00 ([3]; effective purging, 96 h): 99.90 % area | % area: RRT 1.71 ([3]; effective purging, 96 h): 0.06 % area | % area: RRT 1.76 ([3]; effective purging, 96 h): 0.04 % area

CN1CCc2cccc3c2C1Cc1ccc(O)c(O)c1-3 (stereo not drawn) [A0513-94-01]
% area: RRT 1.00 [4, 18]: 99.56 % area | % area: RRT 1.09 [4, 18]: 0.05 % area | % area: RRT 1.25 [4, 18]: 0.06 % area | % area: RRT 1.71 [4, 18]: 0.06 % area | % area: RRT 1.76 [4, 18]: 0.04 % area

CN1CCc2cccc3c2C1Cc1ccc(O)c(O)c1-3 (stereo not drawn) [A0513-94-02]
% area: RRT 1.00 [4, 19]: 92.99 % area | % area: RRT 1.09 [4, 19]: 1.79 % area | % area: RRT 1.25 [4, 19]: 0.57 % area | % area: RRT 1.29 [4, 19]: 1.20 % area | % area: RRT 1.50 [4, 19]: 0.22 % area | % area: RRT 1.71 [4, 19]: 0.34 % area | % area: RRT 1.76 [4, 19]: 0.43 % area

CC(C)O.CN1CCc2cccc3c2C1Cc1ccc(O)c(O)c1-3 (stereo not drawn) [A0513-94-03]
% area: RRT 1.00 [4, 20]: 99.81 % area | % area: RRT 1.25 [4, 20]: 0.13 % area | % area: RRT 1.71 [4, 20]: 0.02 % area

CN1CCc2cccc3c2C1Cc1ccc(O)c(O)c1-3 (stereo not drawn) [A0513-98-02]
% area: RRT 1.00 [4, 21]: 95.62 % area | % area: RRT 1.09 [4, 21]: 1.25 % area | % area: RRT 1.25 [4, 21]: 0.19 % area | % area: RRT 1.29 [4, 21]: 0.61 % area | % area: RRT 1.50 [4, 21]: 0.12 % area | % area: RRT 1.71 [4, 21]: 0.45 % area | % area: RRT 1.76 [4, 21]: 0.34 % area

CC(C)O.CN1CCc2cccc3c2C1Cc1ccc(O)c(O)c1-3 (stereo not drawn) [A0513-98-03]
% area: RRT 1.00 [4, 22]: 99.93 % area | % area: RRT 1.25 [4, 22]: 0.07 % area

C[N+](C)(C)CC(=O)O [Betaine]
Literature pKa [1]: 12.16

CN1CCc2cccc3c2[C@H]1Cc1ccc(O)c(O)c1-3 [H]
Solvent content post-drying [5]: 20.0 % w/w

CN(C1CCCCC1)C1CCCCC1 [N-methyl-dicyclohexyl amine]
pKa [1]: 9.25

CN1CCc2cccc3c2[C@H]1Cc1ccc(O)c(O)c1-3 [O]
Solvent content post-drying [5]: 7.8 % w/w

CN1CCc2cccc3c2[C@H]1Cc1ccc(O)c(O)c1-3 [Sample B]
Solvent content post-drying [5]: 23.4 % w/w | HPLC purity compared between samples ([6]; after 24 h): higher than for either A or C | HPLC purity compared between samples ([6]; after 72 h): highest purity

CN1CCc2cccc3c2[C@H]1Cc1ccc(O)c(O)c1-3 [Sample G]
IPA content remaining ([5]; 75° C. for 17 h under vacuum): 17.4 % w/w

CC1(C)CCCC(C)(C)N1 [TMP, 2,2,6,6-tetramethylpiperidine]
pKa [1]: 11.07 | Literature pKa [1]: 11.07

CN1CCc2cccc3c2[C@H]1Cc1ccc(O)c(O)c1-3 [apomorphine hydrochloride]
Solubility in methanol ([7]; listed as HCl salt, hydrochloride): the only solvent that dissolved any significant amount; also recorded: moderate solubility | Solubility in n-BuOH ([7]; up to 20 vol at reflux): did not dissolve

CN1CCc2cccc3c2[C@H]1Cc1ccc(O)c(O)c1-3 [apomorphine]
Color of solid retained open to air ([8]; over 2 days): did not appear to change | Time over which the solid gradually discolored open to air [8]: about 4 weeks | Solubility in EtOH ([7]; 5 vol, 50 mg portions): fully soluble | Solubility in MeOH ([7]; 5 vol, 50 mg portions): fully soluble | Solubility in n-BuOH ([7]; 5 vol, 50 mg portions): fully soluble
